From patent publication EP3822285A1, “VARIANT NISIN PEPTIDES” (University College Cork-National University of Ireland, Cork, priority 2019, dated 2021) come the findings set out here.

≈ marks a conversion by molar mass, not a printed value. Where “and” joins values, the source holds several entries; their conditions need not be identical. Equal values may be shown once. Marks after values point to notes of the source that are not given here.

Holding throughout (format): cell-based
One assay has as its system T. scotoductus SE-1. Description: Minimum inhibitory concentration assay (Thermus). The settings on record: pure peptide, mean of triplicate assays. Here is the method: (§1) Minimum inhibitory concentration (MIC) determinations for gram negative Thermus strains were carried out in triplicate in round bottom microtitre plates (Corning). 96 well microtitre plates were pre-treated with bovine serum albumin (BSA) prior to addition of the peptides. Briefly, to each well of the microtire plates 200 µl of d.H2O (filtered with 0.2 µm filter) containing 1% (w/w) BSA was added and incubated at 37°C for 30 mins. The wells were washed with 200 µl of IX phosphate buffered saline (PBS) for 2 times after removing 1% BSA d.H2O. 100 µl of growth media, i.e., Castenholz, was added to each well. […] Target strains were grown overnight as per conditions mention above, 0.5 ml of overnight was subcultured in to 10 mls of fresh Castenholz medium and allowed to grow to an OD600 of ∼0.5. 20µl of this subculture was added to 980µl of media, 150µl of this dilution added to 14.85 ml of growth media. 100µl of this dilution added to each well resulting in a final inoculum of ∼10^5 cfu/ml in 200µl. The plates were incubated at 55° C for 3 days and the MIC was determined as the lowest concentration at which no growth was visible.
(§2) The bioactivity of cell-free supernatant can be influenced by altered diffusion rates, solubility, production or specific activity. To determine to what extent, if any, the bioactivity noted above is due to increased specific activity, nisin A (control) and the derivatives were purified and their molecular weights confirmed by MALDI TOF mass spectrometry (Table: 6) (Figure: 4). These peptides were used to perform minimum inhibitory concentration assays against six Thermus strains, i.e., T. thermophilus HB27, T. scotoductus SE-1, T. rehai, T. oshimai, T. aquaticus and T. brockianus.

The subject of a further assay is T. thermophilus HB27. Briefly: Minimum inhibitory concentration assay (Thermus). The settings on record: for MIC: pure peptide, mean of triplicate assays. The procedure:
as §1, §2

The next assay relates to T. brockianus. Description: Minimum inhibitory concentration assay (Thermus). The conditions noted are these: pure peptide, mean of triplicate assays. Here is the method: as §1, §2
The subject of another assay is T. aquaticus. Briefly: Minimum inhibitory concentration assay (Thermus). The conditions noted are these: for MIC: pure peptide, mean of triplicate assays. Here is the method:
as §1, §2

In the next assay the test system is T. rehai. Description: Minimum inhibitory concentration assay (Thermus). The conditions noted are these: for MIC: pure peptide, mean of triplicate assays. The procedure:
as §1, §2

A further assay concerns T. oshimai. Description: Minimum inhibitory concentration assay (Thermus). The conditions noted are these: pure peptide, mean of triplicate assays. The procedure:
as §1, §2

The test system of assay [1] is Thermus thermophilus HB27. Description: Agar diffusion assay with cell free supernatant of producing strains. The conditions noted are these: zone diameter relative to Nisin A wild type (100). The procedure:
(§3) Agar diffusion assays were carried out in triplicate using nisin producing and indicator (T. thermophilus HB27 and T. scotoductus Se-1) strains. Both the producer and indicator strains were cultured as per conditions described above. One ml of overnight culture of indicators were added to 50ml of molten Castenholz agar, briefly swirled and poured. Wells were made using sterile glass pipette. To generate cell free supernatant from nisin producing strains, 10 mls of overnight cultures of the strains were centrifuged at 950g for 20 mins. The cell free supernatant was transferred to a sterile tube. 50 µl of cell free supernatant was added to wells described above. Plates were incubated at 55°C for 3 days and the zone of clearance measured.
(§4) The cell free supernatant of nisin A and nisin variant producing L. lactis was used to determine the bioactivity of these lantibiotics against T. thermophilus HB27 and T. scotoductus SE-1 using agar diffusion assays, with the zone of clearance representing the bioactivity of the producing strain (i.e., representing a combination of the amount of the peptide produced and the specific activity of that peptide). […] Among the variants tested were those with altered N-terminal domains. The N-terminal domain of nisin is important for binding with the pyrophosphate moiety of lipid II to mediate pore formation in the cell membrane. Lysine (K) at position 12, which serves as a small flexible region between ring B and C, and is one of among the 5 positively charged residues (K12, K22, K34, H27, […]) of nisin A that contributes to its cationic nature and its attraction to the cell envelope.
On the technique in general: In agar diffusion tests the substance spreads into inoculated agar from a disc or well.

The next assay has as its system Thermus scotoductus SE-1. The description is as above. The conditions noted are these: zone diameter relative to Nisin A wild type (100). Here is the method: as §3, §4

In general, MIC refers to the lowest concentration found to suppress growth. Low values mean inhibition by little substance, high ones a need for much substance. Take `C=C(NC(=O)[C@@H](NC(=O)[C@H](Cc1c[nH]cn1)NC(=O)[C@@H](NC(=O)[C@H](CO)NC(=O)[C@@H]1CS[C@@H](C)[C@H]2NC(=O)[C@H](C)NC(=O)[C@H](NC(=O)[C@H](CCCCN)NC(=O)[C@H](CCC(N)=O)NC(=O)[C@H](CC(N)=O)NC(=O)[C@@H]3CS[C@@H](C)[C@@H](NC(=O)[C@H](CCCCN)NC(=O)[C@@H]4CS[C@@H](C)[C@@H](NC(=O)[C@@H]5CSC[C@@H](NC(=O)/C(=C/C)NC(=O)[C@@H](N)[C@@H](C)CC)C(=O)N[C@@H]([C@@H](C)CC)C(=O)NC(=C)C(=O)N[C@@H](CC(C)C)C(=O)N5)C(=O)N5CCC[C@H]5C(=O)NCC(=O)N4)C(=O)NCC(=O)N[C@@H](C)C(=O)N[C@@H](CC(C)C)C(=O)N[C@@H](CCSC)C(=O)NCC(=O)N3)[C@H](C)SC[C@H](NC2=O)C(=O)N[C@@H](Cc2c[nH]cn2)C(=O)N1)[C@@H](C)CC)C(C)C)C(=O)N[C@@H](CCCCN)C(=O)O` [M21Q]: the MIC is 0.0625 µM (≈ 0.209 µg/mL) against T. scotoductus SE-1; 0.0039 µM (≈ 0.0131 µg/mL) against T. thermophilus HB27; 0.0156 µM (≈ 0.0523 µg/mL) in the assay with T. brockianus; 26.1 µg/L and 0.0078 µM against T. aquaticus; 13 µg/L and 0.0039 µM against T. rehai; 6.5 µg/L and 0.00195 µM against T. oshimai. The “% difference” value in assay [1] is given as 123%. The “% of wild type” value with Thermus scotoductus SE-1 is 124* (0.05) %.
As to `C=C(NC(=O)[C@@H](NC(=O)[C@H](Cc1c[nH]cn1)NC(=O)[C@@H](NC(=O)[C@H](CO)NC(=O)[C@@H]1CS[C@@H](C)[C@H]2NC(=O)[C@H](C)NC(=O)[C@H](NC(=O)[C@H](CCCCN)NC(=O)[C@H](CCSC)NC(=O)[C@H](CC(N)=O)NC(=O)[C@@H]3CS[C@@H](C)[C@@H](NC(=O)[C@@H](NC(=O)[C@@H]4CS[C@@H](C)[C@@H](NC(=O)[C@@H]5CSC[C@@H](NC(=O)/C(=C/C)NC(=O)[C@@H](N)[C@@H](C)CC)C(=O)N[C@@H]([C@@H](C)CC)C(=O)NC(=C)C(=O)N[C@@H](CC(C)C)C(=O)N5)C(=O)N5CCC[C@H]5C(=O)NCC(=O)N4)[C@@H](C)O)C(=O)NCC(=O)N[C@@H](C)C(=O)N[C@@H](CC(C)C)C(=O)N[C@@H](CCSC)C(=O)NCC(=O)N3)[C@H](C)SC[C@H](NC2=O)C(=O)N[C@@H](Cc2c[nH]cn2)C(=O)N1)[C@@H](C)CC)C(C)C)C(=O)N[C@@H](CCCCN)C(=O)O` [K12T], the MIC amounted to 0.0625 µM (≈ 0.208 µg/mL) with T. scotoductus SE-1; 0.0156 µM (≈ 0.0519 µg/mL) in the assay with T. thermophilus HB27; 0.0625 µM (≈ 0.208 µg/mL) with T. brockianus; 0.0312 µM (≈ 0.104 µg/mL) in the assay on T. aquaticus; 0.0156 µM (≈ 0.0519 µg/mL) against T. rehai; 0.0312 µM (≈ 0.104 µg/mL) with T. oshimai. The “% difference” value in assay [1] is on record as 148* (.001) %. Also, the “% of wild type” value with Thermus scotoductus SE-1 was 140* (0.001) %.
As to `C=C(NC(=O)[C@@H](NC(=O)[C@H](Cc1c[nH]cn1)NC(=O)[C@@H](NC(=O)[C@H](CO)NC(=O)[C@@H]1CS[C@@H](C)[C@H]2NC(=O)[C@H](C)NC(=O)[C@H](NC(=O)[C@H](CCCCN)NC(=O)[C@H](Cc3ccccc3)NC(=O)[C@H](CC(N)=O)NC(=O)[C@@H]3CS[C@@H](C)[C@@H](NC(=O)[C@H](CCCCN)NC(=O)[C@@H]4CS[C@@H](C)[C@@H](NC(=O)[C@@H]5CSC[C@@H](NC(=O)/C(=C/C)NC(=O)[C@@H](N)[C@@H](C)CC)C(=O)N[C@@H]([C@@H](C)CC)C(=O)NC(=C)C(=O)N[C@@H](CC(C)C)C(=O)N5)C(=O)N5CCC[C@H]5C(=O)NCC(=O)N4)C(=O)NCC(=O)N[C@@H](C)C(=O)N[C@@H](CC(C)C)C(=O)N[C@@H](CCSC)C(=O)NCC(=O)N3)[C@H](C)SC[C@H](NC2=O)C(=O)N[C@@H](Cc2c[nH]cn2)C(=O)N1)[C@@H](C)CC)C(C)C)C(=O)N[C@@H](CCCCN)C(=O)O` [M21F], the MIC in the assay on T. scotoductus SE-1 was determined as 0.0312 µM (≈ 0.105 µg/mL); in the assay with T. thermophilus HB27, 0.0039 µM (≈ 0.0131 µg/mL); against T. brockianus it was 0.0078 µM (≈ 0.0263 µg/mL); in the assay with T. aquaticus it was 0.0039 µM (≈ 0.0131 µg/mL); against T. rehai it was 0.000975 µM (≈ 0.00329 µg/mL); in the assay on T. oshimai it was 0.00195 µM (≈ 0.00657 µg/mL). Moreover, the “% difference” value in assay [1] is 125%. The “% of wild type” value in the assay on Thermus scotoductus SE-1 is 106%.
For the compound `C=C(NC(=O)[C@@H](NC(=O)[C@H](Cc1c[nH]cn1)NC(=O)[C@@H](NC(=O)[C@H](CO)NC(=O)[C@@H]1CS[C@@H](C)[C@H]2NC(=O)[C@H](C)NC(=O)[C@H](NC(=O)[C@H](CCCCN)NC(=O)[C@H](CCSC)NC(=O)[C@H](CC(N)=O)NC(=O)[C@@H]3CS[C@@H](C)[C@@H](NC(=O)[C@H](Cc4ccc(O)cc4)NC(=O)[C@@H]4CS[C@@H](C)[C@@H](NC(=O)[C@@H]5CSC[C@@H](NC(=O)/C(=C/C)NC(=O)[C@@H](N)[C@@H](C)CC)C(=O)N[C@@H]([C@@H](C)CC)C(=O)NC(=C)C(=O)N[C@@H](CC(C)C)C(=O)N5)C(=O)N5CCC[C@H]5C(=O)NCC(=O)N4)C(=O)NCC(=O)N[C@@H](C)C(=O)N[C@@H](CC(C)C)C(=O)N[C@@H](CCSC)C(=O)NCC(=O)N3)[C@H](C)SC[C@H](NC2=O)C(=O)N[C@@H](Cc2c[nH]cn2)C(=O)N1)[C@@H](C)CC)C(C)C)C(=O)N[C@@H](CCCCN)C(=O)O` [K12Y], the MIC against T. scotoductus SE-1 was 0.625 µM (≈ 2.12 µg/mL); in the assay on T. thermophilus HB27 it was 0.0156 µM (≈ 0.0529 µg/mL); in the assay with T. brockianus, 0.0312 µM (≈ 0.106 µg/mL); in the assay on T. aquaticus, 26.4 µg/L and 0.0078 µM; against T. rehai it was 6.6 µg/L and 0.00195 µM; against T. oshimai, 0.0156 µM (≈ 0.0529 µg/mL). In addition, the “fold better activity than nisin A” value with T. aquaticus is recorded as 2 fold; with T. rehai, 4 fold. In addition, the “% difference” value in assay [1] is reported as 94%. Further, the “% of wild type” value in the assay with Thermus scotoductus SE-1 turned out to be 74%.
For `C=C(NC(=O)[C@@H](NC(=O)[C@H](Cc1c[nH]cn1)NC(=O)[C@@H](NC(=O)[C@H](CO)NC(=O)[C@@H]1CS[C@@H](C)[C@H]2NC(=O)[C@H](C)NC(=O)[C@H](NC(=O)[C@H](CCCCN)NC(=O)[C@H](Cc3ccc(O)cc3)NC(=O)[C@H](CC(N)=O)NC(=O)[C@@H]3CS[C@@H](C)[C@@H](NC(=O)[C@H](CCCCN)NC(=O)[C@@H]4CS[C@@H](C)[C@@H](NC(=O)[C@@H]5CSC[C@@H](NC(=O)/C(=C/C)NC(=O)[C@@H](N)[C@@H](C)CC)C(=O)N[C@@H]([C@@H](C)CC)C(=O)NC(=C)C(=O)N[C@@H](CC(C)C)C(=O)N5)C(=O)N5CCC[C@H]5C(=O)NCC(=O)N4)C(=O)NCC(=O)N[C@@H](C)C(=O)N[C@@H](CC(C)C)C(=O)N[C@@H](CCSC)C(=O)NCC(=O)N3)[C@H](C)SC[C@H](NC2=O)C(=O)N[C@@H](Cc2c[nH]cn2)C(=O)N1)[C@@H](C)CC)C(C)C)C(=O)N[C@@H](CCCCN)C(=O)O` [M21Y], the MIC in the assay on T. scotoductus SE-1 is 0.0625 µM (≈ 0.212 µg/mL); with T. thermophilus HB27 it was 13.2 µg/L and 0.0039 µM; against T. brockianus, 0.0312 µM (≈ 0.106 µg/mL); in the assay with T. aquaticus, 6.6 µg/L and 0.00195 µM; in the assay with T. rehai, 13.2 µg/L and 0.0039 µM; in the assay with T. oshimai, 13.2 µg/L and 0.0039 µM. In addition, in the assay with T. thermophilus HB27, the “fold better activity than nisin A” value was “two-fold”. In addition, the “% difference” value in assay [1] worked out at 115%. The “% of wild type” value in the assay on Thermus scotoductus SE-1 worked out at 115%.
